# What was measured:
# CDK9/CycT = target: T1, CDK9/CycT (Homo sapiens, UniProt P50750); assay: In vitro kinase inhibition assay, CDK9/CycT; assay type: biochemical
# T1 construct: host or cells: Sf9 insect cells, baculovirus
# Procedure: In vitro kinase inhibition assays may be performed according to the following protocol:
# Compounds are used as 1×10^−02 M stock solutions in 100% DMSO, 100 μl each in column 2 of three 96-well V-shaped microtiter plates (in the following, said plates are referred to as “master plates”).
# Subsequently, the 1×10^−02 M stock solutions in column 2 of the master plates are subjected to a serial, semi-logarithmic dilution using 100% DMSO as a solvent, resulting in 10 different concentrations, the dilution endpoint being 3×10^−07 M/100% DMSO in column 12. Column 1 and 7 are filled with 100% DMSO as controls. […]
# For the determination of inhibitory profiles, the following protein kinases were used: CDK2/CycA, CDK4/CycD1, CDK6/CycD1 and CDK9/CycT. […] The purity of each kinase is determined by SDS-PAGE/silver staining and the identity of each kinase is verified by western blot analysis with kinase specific antibodies or by mass spectroscopy. […]
# Reaction mixtures are incubated at 30° C. for 80 minutes. […] Incorporation of ^33P is determined with a microplate scintillation counter (Microbeta, Wallac). […]
# The median value of the counts in column 1 (n=8) of each assay plate is defined as “low control”. This value reflects unspecific binding of radioactivity to the plate in the absence of a protein kinase but in the presence of the substrate. […]
# CDK3/CycE = target: T2, CDK3/CycE (Homo sapiens, UniProt Q00526); assay: In vitro kinase inhibition assay, CDK3/CycE; assay type: biochemical
# T2 construct: made in house; host or cells: Sf9 insect cells, baculovirus
# T2 sequence (Q00526 whole entry): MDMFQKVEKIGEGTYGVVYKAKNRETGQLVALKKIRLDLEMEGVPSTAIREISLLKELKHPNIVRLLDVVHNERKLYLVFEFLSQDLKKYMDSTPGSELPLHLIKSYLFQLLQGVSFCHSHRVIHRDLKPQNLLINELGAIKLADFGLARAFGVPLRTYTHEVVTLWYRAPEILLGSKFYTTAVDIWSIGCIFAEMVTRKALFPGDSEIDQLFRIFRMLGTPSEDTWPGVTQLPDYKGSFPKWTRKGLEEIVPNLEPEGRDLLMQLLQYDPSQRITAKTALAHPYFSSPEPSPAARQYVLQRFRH
# T2 sequence (P24864 whole entry partner): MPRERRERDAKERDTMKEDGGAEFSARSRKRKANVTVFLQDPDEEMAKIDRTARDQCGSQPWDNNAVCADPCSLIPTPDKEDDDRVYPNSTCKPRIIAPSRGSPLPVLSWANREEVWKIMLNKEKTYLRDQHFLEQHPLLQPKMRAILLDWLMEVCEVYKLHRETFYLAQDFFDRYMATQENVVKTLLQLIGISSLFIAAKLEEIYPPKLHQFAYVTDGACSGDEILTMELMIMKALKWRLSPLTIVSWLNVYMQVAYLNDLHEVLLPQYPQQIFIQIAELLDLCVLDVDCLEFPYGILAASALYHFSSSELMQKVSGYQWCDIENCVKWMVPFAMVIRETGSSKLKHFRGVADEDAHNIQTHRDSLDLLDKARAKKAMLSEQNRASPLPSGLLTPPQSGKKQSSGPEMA
# T1 sequence (P50750 whole entry): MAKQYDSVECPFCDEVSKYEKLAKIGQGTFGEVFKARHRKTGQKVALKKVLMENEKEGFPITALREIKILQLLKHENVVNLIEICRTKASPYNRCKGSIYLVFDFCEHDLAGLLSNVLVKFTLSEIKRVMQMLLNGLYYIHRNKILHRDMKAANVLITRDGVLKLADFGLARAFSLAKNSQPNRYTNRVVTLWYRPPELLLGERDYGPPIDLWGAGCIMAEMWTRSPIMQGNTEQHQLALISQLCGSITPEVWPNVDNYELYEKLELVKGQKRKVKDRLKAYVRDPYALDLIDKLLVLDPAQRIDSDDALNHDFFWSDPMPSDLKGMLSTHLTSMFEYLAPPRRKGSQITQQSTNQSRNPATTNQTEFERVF
# T1 sequence (O60563 whole entry partner): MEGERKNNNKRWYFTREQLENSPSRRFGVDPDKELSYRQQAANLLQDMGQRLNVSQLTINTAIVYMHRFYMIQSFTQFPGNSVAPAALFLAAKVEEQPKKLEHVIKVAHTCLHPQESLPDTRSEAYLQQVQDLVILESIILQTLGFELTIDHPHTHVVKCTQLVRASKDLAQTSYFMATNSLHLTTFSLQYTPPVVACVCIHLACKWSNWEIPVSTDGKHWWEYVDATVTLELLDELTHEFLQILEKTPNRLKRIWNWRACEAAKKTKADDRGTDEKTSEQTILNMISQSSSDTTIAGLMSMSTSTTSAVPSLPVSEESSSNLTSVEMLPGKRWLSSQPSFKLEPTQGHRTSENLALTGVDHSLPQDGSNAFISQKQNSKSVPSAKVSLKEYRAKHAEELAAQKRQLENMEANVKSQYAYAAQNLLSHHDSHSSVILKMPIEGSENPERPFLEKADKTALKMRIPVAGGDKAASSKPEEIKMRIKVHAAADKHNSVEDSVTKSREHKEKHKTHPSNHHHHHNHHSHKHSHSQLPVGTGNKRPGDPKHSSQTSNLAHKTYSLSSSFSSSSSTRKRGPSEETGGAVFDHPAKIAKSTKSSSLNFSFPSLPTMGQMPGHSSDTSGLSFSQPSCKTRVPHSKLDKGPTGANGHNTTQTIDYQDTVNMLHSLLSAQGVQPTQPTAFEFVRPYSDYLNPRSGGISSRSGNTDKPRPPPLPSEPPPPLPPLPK
smiles,measurement,setting,value
COc1ccccc1-c1cc(Nc2cccc(S(N)(=O)=O)c2)ncn1 [Compound A],IC50,CDK9/CycT; CDK9/CycT,0.63 µM
same,specificity for CDK9 over other CDKs,CDK9/CycT; from IC50 values of Table 1,high specificity for CDK9
same,IC50,CDK3/CycE,18.5 µM

# Source: US20090221581A1, “Methods of treating pain” (priority 2005, published 2009)
